# “Also recorded” adds a separate entry of the source.
# How the values were obtained:
# [1] = biological target: T1, p75^NTR-expressing 3T3 cells (Homo sapiens, UniProt P08138); test: p75NTR antibody (Ab 9651) competition on 3T3 cells, western blot; assay type: binding; details: 100 nM compound, 90 min, 4° C.
# T1 construct: host or cells: NIH3T3 fibroblasts
# T1 sequence (P08138 29-427): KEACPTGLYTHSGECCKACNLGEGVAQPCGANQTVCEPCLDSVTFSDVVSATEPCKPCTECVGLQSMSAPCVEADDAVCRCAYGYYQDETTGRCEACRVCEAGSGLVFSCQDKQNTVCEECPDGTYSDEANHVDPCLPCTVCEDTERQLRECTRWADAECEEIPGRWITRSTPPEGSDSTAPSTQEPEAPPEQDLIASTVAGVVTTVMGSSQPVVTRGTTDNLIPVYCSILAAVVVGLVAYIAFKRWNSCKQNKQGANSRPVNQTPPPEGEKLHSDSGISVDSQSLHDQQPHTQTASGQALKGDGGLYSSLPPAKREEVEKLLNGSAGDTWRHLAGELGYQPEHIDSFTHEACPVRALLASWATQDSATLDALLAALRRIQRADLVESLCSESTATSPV
# Experimental: NIH3T3 fibroblasts expressing either null vector or p75^NTR (Huang, C. S. et al. (1999) J Biol Chem 274, 36707-36714) were obtained from Dr. William Mobley (Stanford University, Calif., United States of America). Cells were grown in monolayers, harvested in PBS with 2 mM EDTA, pelleted, and resuspended in ice-cold DMEM HEPES with 1 mg/ml BSA. 6-9×10^6 cells from one confluent 6-well plate were used for each experimental point.
# For binding analysis, p75^NTR antibody (1:100) was allowed to bind in the presence or absence of 100 nM p75-binding compounds for 90 minutes at 4° C. with gentle rotation, followed by four washes in PBS. The final cell pellet was resuspended in lysis buffer.
# Western blots were performed as described above. To detect the presence of p75^NTR antibody, blots were probed with horseradish peroxidase-linked goat anti-rabbit IgG obtained from Amersham/Pharmacia Biotech (Piscataway, N.J., United States of America). Signals were detected by the ECL chemiluminescence system obtained from Amersham Biosciences (Piscataway, […]., United States of America). To control for variation in protein loading, the blot was stripped and reprobed with β-actin monoclonal antibody obtained from Sigma (St. Louis, Mo., United States of America).
# [2] = tested on: E16-17 mouse hippocampal neurons; test: Hippocampal neuron survival (morphology plus MTT conversion); assay type: cell-based
# Experimental: (§1) Hippocampal neurons were prepared from E16-17 mouse embryos as previously described (Yang. T. et al. (2003) J Neurosci 23, 3353-3363). […] For studies employing p75^NTR+/+ and p75^NTR−/− neurons, mice carrying a mutation in exon 3 of the p75^NTR gene (Lee, K. F. et al. (1992) Cell 69, 737-749) were bred onto a B6 congenic background (>10 B6 backcrosses).
# (§2) After 48 hours in culture, cell survival was assessed as previously described (Longo, F. M., Manthorpe. M., Xie. Y. M., Varon, S. (1997) J Neurosci Res 48, 1-17) using a combination of standard morphological criteria along with visual determination of whether a given cell converted MTT to its blue formazan product. The number of surviving neurons was determined by counting the total number of cells in each well that were both morphologically intact and filed with blue product (Longo F. M., Manthorpe. M., Xie, Y. M., Varon, S. (1997) J Neurosci Res 48, 1-17). For each neurotrophin or compound concentration, duplicate wells were counted and the resulting values averaged. Activity of each compound was confirmed by blinded counts. Counts were normalized to survival achieved with 25 ng/ml BDNF or to baseline survival. Fitting of dose-responsive curves was performed with Sigmaplot obtained from SYSTAT Software Inc. (Richmond, Calif., United States of America).
# TrkA-Fc = test: NGF/TrkA-Fc binding by NGF ELISA; details: up to 10,000 nM compound
# Experimental: (§3) Briefly, 96-well plates were incubated with 0.1 pmol (at 1 nM) of p75/Fc or TrkA/Fc recombinant protein obtained from R&D System (Minneapolis, Minn., United States of America) overnight at 4° C. followed by incubation with blocking buffer for 1 hour at room temperature. […] Plates were then washed five times with Tris-buffered saline (TBS) containing 0.05% Tween-20 and incubated with anti-NGF rabbit polyclonal antibody overnight at 4° C. Following five washes with TBS, wells were incubated for 2.5 hours at room temperature with anti-rabbit IgG HRP conjugate and washed five times. 3,3′,5,5′-tetramethyl-benzidine substrate was added and the optical density measured at 450 nm.
# [3] = Age-related hair loss in middle-aged male mice; assay type: in vivo
# p75^NTR−/− cells = test: Survival of p75NTR+/+ versus p75NTR-/- hippocampal neurons; assay type: cell-based, mouse; details: neurotrophins 1.8 nM, compounds 5 nM
# Experimental: as §1, §2
# (§4) For all studies applying signaling inhibitors, p75^NTR antibodies or p75^NTR−/− neurons, survival was assessed at 48 hours.
# p75^NTR = biological target: T2, p75^NTR (Homo sapiens, UniProt P08138); test: proNGF binding to p75NTR by ELISA; details: 100 ng/ml proNGF
# T2 construct: purchased R&D Systems
# Experimental: as §3
# hippocampal neurons = test: Hippocampal neuron survival with signaling pathway inhibitors; assay type: cell-based, mouse; details: BDNF/NGF 25 ng/ml, compounds 5 nM, 48 h
# Experimental: as §1, §2, §4
# NFκB-p65 = NFκB-p65 phosphorylation western blot in hippocampal cultures; assay type: cell-based, mouse; details: 20 nM
# Experimental: For assays of Trk, AKT, NFκB, and ERK activation, hippocampal neurons derived from E16-17 mice were cultured in poly-L-lysine coated six-well plates (Corning, Inc., Corning, N.Y., United States of America) in DMEM containing 10% FBS, followed by incubation in serum-free DMEM for 2 hours before addition of neurotrophins or compounds. At the indicated time points, neurons were harvested in lysis buffer consisting of: 20 mM Tris, pH 8.0, 137 mM NaCl, 1% Igepal CA-630, 10% glycerol, 1 mM PMSF, 10 μg/ml aprotinin, 1 μg/ml leupeptin, 500 μM orthovanadate (Zhou, J., Valletta, J. S., Grimes, M. L., Mobley, W. C. (1995) J Neurochem 65, 1146-1156).
# Lysates were centrifuged, the supernatant collected, and protein concentrations determined using the BCA Protein Assay Reagent obtained from Pierce (Rockford, Ill., United States of America). Western blots were performed as described previously (Yang, T. et al. (2003) J Neurosci 23, 3353-3363). Western blot signals were detected using the ECL Chemiluminescence System obtained by Amersham (Piscataway, N.J., United States of America) (Yang, T. et al. (2003) J Neurosci 23, 3353-3363).
# T2 sequence (P08138 with tags, fused parts or gaps limits assumed): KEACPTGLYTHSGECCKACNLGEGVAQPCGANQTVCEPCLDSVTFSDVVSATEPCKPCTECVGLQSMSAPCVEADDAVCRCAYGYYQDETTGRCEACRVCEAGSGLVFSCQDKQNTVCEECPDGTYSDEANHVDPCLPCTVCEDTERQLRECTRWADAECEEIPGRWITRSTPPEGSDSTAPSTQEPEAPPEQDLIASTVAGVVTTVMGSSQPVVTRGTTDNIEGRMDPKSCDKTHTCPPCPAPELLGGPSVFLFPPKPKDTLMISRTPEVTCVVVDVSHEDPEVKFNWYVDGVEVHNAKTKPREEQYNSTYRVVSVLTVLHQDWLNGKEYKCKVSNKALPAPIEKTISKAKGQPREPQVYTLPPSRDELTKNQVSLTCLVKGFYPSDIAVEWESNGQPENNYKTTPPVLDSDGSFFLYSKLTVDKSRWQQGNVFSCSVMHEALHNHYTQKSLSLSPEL
structure (smiles),measurement,setting,value
CCC(C)C(N)C(=O)NCCN1CCOCC1 (stereo not shown) [Compound 4],displacement of anti-p75NTR Ab 9651,[1],significantly displaced
same,additive effect on survival with NGF,[2]; 5 nM compound along with 50 ng/ml NGF,no additive effect on survival
same,EC50,"[2]; Mus musculus, Hippocampal neuron, dose-response, FIG. 2b, read-out: EC50 of survival-promoting (biologic) effect",~150 pM
same,effect on NGF binding to TrkA-Fc,TrkA-Fc,"did not affect; also recorded: no compound effects up to 10,000 nM"
same,"mice with hair loss, studies taken together","[3]; both studies pooled, p 0.001 Fisher's Exact test vs vehicle",0 of 14
same,mice with hair loss,"[3]; follow up study, middle-aged male mice, 2-month time point",0 of 9
same,mice with age-related hair loss,"[3]; three-month toxicology trial, male mice",0 of 5
same,effect of p75NTR-deficiency on promotion of neuron survival by the substance,p75^NTR−/− cells,completely inhibits
same,proNGF ELISA signal versus proNGF alone,p75^NTR; P<0.01,significantly less than proNGF alone
same,decrement of proNGF binding to p75NTR,"p75^NTR; at the highest concentration (range 1500 nM to 10,000 nM)",approximately 30%
same,effect of PD98059 (ERK inhibitor) on survival promoted by the substance,hippocampal neurons; PD98059 50 μM,no significant decrease
same,effect of SN50 (NFκB translocation inhibitor) on survival promoted by the substance,hippocampal neurons; SN50 2.5 μg/ml,significantly reduced
same,increase in NFκB-p65 phosphorylation,NFκB-p65,approximately 1.5 fold

# Reference: patent US7723328B2, “Methods of facilitating cell survival using neurotrophin mimetics” (The University of North Carolina at Chapel Hill, priority 2005, dated 2010)
